What was measured:
[1] = target: T1, human TREX2 (residues M44-A279) (Homo sapiens, UniProt Q9BQ50); assay: TREX2 Biochemical Assay (fluorescence assay, degradation of dsDNA substrate); conditions: 2.5 nM TREX2, 60 nM dsDNA substrate, 25 minutes at room temperature
T1 construct: human TREX2 (residues M44-A279, expressed in E. coli); His-Tev (His tag with TEV site) (N); made in house; host or cells: E. coli
T1 sequence (Q9BQ50 44-279 isoform Q9BQ50-1): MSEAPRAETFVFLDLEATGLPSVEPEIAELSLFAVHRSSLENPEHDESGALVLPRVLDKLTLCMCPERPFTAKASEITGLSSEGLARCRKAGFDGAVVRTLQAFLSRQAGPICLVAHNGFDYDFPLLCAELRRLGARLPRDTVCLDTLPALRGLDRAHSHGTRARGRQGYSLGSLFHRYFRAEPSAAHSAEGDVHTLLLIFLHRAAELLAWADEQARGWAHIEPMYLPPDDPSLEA
Experimental: Degradation of the dsDNA liberates free fluorophore to produce a fluorescent signal. Specifically, 7.5 μL of N-terminally His-Tev tagged human TREX2 (residues M44-A279, expressed in E. coli and purified in house) in reaction buffer (50 mM Tris (pH 7.4), 150 mM NaCl, 2 mM DTT, 0.1 mg/mL BSA, 0.01% (v/v) Tween-20 and 100 mM MgCl2) was added to a 384-well Black ProxiPlate Plus (Perkin Elmer) which already contained compound (150 nL) at varying concentrations as a 10 point dose-response in DMSO. To this was added 7.5 μL of dsDNA substrate (Strand A: 5′ TEX615/GCT AGG CAG 3′; Strand B: 5′ CTG CCT AGC/IAbRQSp (IDT)) in reaction buffer. Final concentrations were 2.5 nM TREX2, 60 nM dsDNA substrate in reaction buffer with 1.0% DMSO (v/v). After 25 minutes at room temperature, reactions were quenched by the addition of 5 μL of stop buffer (same as reaction buffer plus 200 mM EDTA). Final concentrations in the quenched reaction mixture were […] TREX2, 45 nM DNA and 50 mM EDTA in a volume of 20 μL. After a 5-minute incubation at room temperature, plates were read in a laser sourced Envision (Perkin-Elmer), measuring fluorescence at 615 nm following excitation w/570 nm light. IC50 values were calculated by comparing the measured fluorescence at 615 nm ratio relative to control wells pre-quenched w/stop buffer (100% inhibition) and no inhibitor (0% inhibition) controls as using non-linear least square four parameter fits and either Genedata or GraphPad Prism (GraphPad Software, Inc.).

full length human TREX1 = target: T2, full length human TREX1 (Homo sapiens, UniProt Q9NSU2); assay: TREX1 Biochemical Assay (fluorescence assay, degradation of dsDNA substrate); conditions: 150 pM TREX1, 60 nM dsDNA substrate, 25 minutes at room temperature
T2 construct: N-terminally His-Tev tagged full length human TREX1; His-Tev (His tag with TEV site) (N); made in house; host or cells: E. coli
T2 sequence (Q9NSU2 1-314): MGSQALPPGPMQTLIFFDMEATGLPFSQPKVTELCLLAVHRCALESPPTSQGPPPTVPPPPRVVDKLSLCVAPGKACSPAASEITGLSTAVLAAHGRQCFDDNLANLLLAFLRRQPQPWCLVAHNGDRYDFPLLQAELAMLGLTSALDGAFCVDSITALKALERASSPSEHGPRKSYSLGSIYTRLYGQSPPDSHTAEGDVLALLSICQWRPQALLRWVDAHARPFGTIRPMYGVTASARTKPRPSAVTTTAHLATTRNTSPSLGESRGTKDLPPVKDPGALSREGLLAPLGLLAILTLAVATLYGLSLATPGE
Experimental: Degradation of the dsDNA liberates free fluorophore to produce a fluorescent signal. Specifically, 7.5 μL of N-terminally His-Tev tagged full length human TREX1 (expressed in E. coli and purified in house) in reaction buffer (50 mM Tris (pH 7.4), 150 mM NaCl, 2 mM DTT, 0.1 mg/mL BSA, 0.01% (v/v) Tween-20 and either 100 mM MgCl2) was added to a 384-well Black ProxiPlate Plus (Perkin Elmer) which already contained compound (150 nL) at varying concentrations as a 10 point dose-response in DMSO. To this was added 7.5 μL of dsDNA substrate (Strand A: 5′ TEX615/GCT AGG CAG 3′; Strand B: 5′ CTG CCT AGC/IAbRQSp (Integrated DNA Technologies)) in reaction buffer. Final concentrations were 150 pM TREX1, 60 nM dsDNA substrate in reaction buffer with 1.0% DMSO (v/v). After 25 minutes at room temperature, reactions were quenched by the addition of 5 μL of stop buffer (same as reaction buffer plus 200 mM EDTA). Final concentrations in the quenched reaction were 112.5 pM TREX1, 45 nM DNA and 50 mM EDTA in a volume of 20 μL. After a 5-minute incubation at room temperature, plates were read in a laser sourced Envision (Perkin-Elmer), measuring fluorescence at 615 nm following excitation w/570 nm light. IC50 values were calculated by comparing the measured fluorescence at 615 nm ratio relative to control wells pre-quenched w/stop buffer (100% inhibition) and no inhibitor (0% inhibition) controls as using non-linear least square four parameter fits and either Genedata or GraphPad Prism (GraphPad Software, Inc.).

`Cc1nn(C)cc1-c1cc(C(N)=O)cc(N2CCC(O)(c3ccc(F)c(F)c3)CC2)n1` [Example 39, 2-(4-(3,4-difluorophenyl)-4-hydroxypiperidin-1-yl)-6-(1,3-dimethyl-1H-pyrazol-4-yl)isonicotinamide] was tested, and the IC50 [1] was 10 to 100 µM and the IC50 (full length human TREX1) was < 0.1 µM.

`Cc1nn(C)cc1-c1cc(C(=O)NCc2ccccc2)cc(N2CCC(O)(c3ccc(F)c(F)c3)CC2)n1` [Example 40, N-benzyl-2-(4-(3,4-difluorophenyl)-4-hydroxypiperidin-1-yl)-6-(1,3-dimethyl-1H-pyrazol-4-yl)isonicotinamide] was tested, and the IC50 [1] was > 100 µM and the IC50 (full length human TREX1) was 0.1 to 1 µM.

`Cc1nn(C)cc1-c1cc(C(=O)N2CCCCC2)cc(N2CCC(O)(c3ccc(F)c(F)c3)CC2)n1` [Example 41, (2-(4-(3,4-difluorophenyl)-4-hydroxypiperidin-1-yl)-6-(1,3-dimethyl-1H-pyrazol-4-yl)pyridin-4-yl)(piperidin-1-yl)methanone] was tested, and the IC50 [1] was 10 to 100 µM and the IC50 (full length human TREX1) was < 0.1 µM.

For `Cc1nn(C)cc1-c1cccc(N2CCC(O)(c3ccc(F)c(F)c3)CC2)n1` [Example 42, 4-(3,4-difluorophenyl)-1-(6-(1,3-dimethyl-1H-pyrazol-4-yl)pyridin-2-yl)piperidin-4-ol], the IC50 [1] was > 100 µM and the IC50 (full length human TREX1) was 1 to 10 µM.

For `Cc1cc(-c2cn(C)nc2C)nc(N2CCC(O)(c3ccc(F)c(F)c3)CC2)c1` [Example 43], the IC50 [1] was > 100 µM and the IC50 (full length human TREX1) was 0.1 to 1 µM.

Work on `Cc1nn(C)cc1-c1cc(CO)cc(N2CCC(O)(c3ccc(F)c(F)c3)CC2)n1` [Example 44, 4-(3,4-difluorophenyl)-1-(6-(1,3-dimethyl-1H-pyrazol-4-yl)-4-(hydroxymethyl)pyridin-2-yl)piperidin-4-ol] yielded an IC50 [1] of 10 to 100 µM and an IC50 (full length human TREX1) of 0.1 to 1 µM.

For `Cc1nn(C)cc1-c1cc(C(C)(C)O)cc(N2CCC(O)(c3ccc(F)c(F)c3)CC2)n1` [Example 45, 4-(3,4-difluorophenyl)-1-(6-(1,3-dimethyl-1H-pyrazol-4-yl)-4-(2-hydroxypropan-2-yl)pyridin-2-yl)piperidin-4-ol], the IC50 [1] was 10 to 100 µM and the IC50 (full length human TREX1) was < 0.1 µM.

In the case of `Cc1nn(C)cc1-c1cc(C(F)(F)F)cc(N2CCC(O)(c3ccc(F)c(F)c3)CC2)n1` [Example 46, 4-(3,4-difluorophenyl)-1-(6-(1,3-dimethyl-1H-pyrazol-4-yl)-4-(trifluoromethyl)pyridin-2-yl)piperidin-4-ol], the IC50 [1] is reported as > 100 µM and the IC50 (full length human TREX1) is reported as 0.1 to 1 µM.

For `Cc1nn(C)cc1-c1cncc(N2CCC(O)(c3cc(F)c(F)c(F)c3)CC2)n1` [Example 47, 1-(6-(1,3-dimethyl-1H-pyrazol-4-yl)pyrazin-2-yl)-4-(3,4,5-trifluorophenyl)piperidin-4-ol], the IC50 [1] was 10 to 100 µM and the IC50 (full length human TREX1) was < 0.1 µM.

With `Cc1nn(C(C)C)cc1-c1cncc(N2CCC(O)(c3ccc(F)c(F)c3)CC2)n1` [Example 48, 4-(3,4-difluorophenyl)-1-(6-(1-isopropyl-3-methyl-1H-pyrazol-4-yl)pyrazin-2-yl)piperidin-4-ol] the IC50 [1] was 10 to 100 µM and the IC50 (full length human TREX1) was < 0.1 µM.

`Cc1nn(C)cc1-c1cc(N2CCC(O)(c3ccc(F)c(F)c3)CC2)ccn1` [Example 49, 4-(3,4-difluorophenyl)-1-(2-(1,3-dimethyl-1H-pyrazol-4-yl)pyridin-4-yl)piperidin-4-ol] was tested, and the IC50 [1] was > 100 µM and the IC50 (full length human TREX1) was 1 to 10 µM.

With `Cn1nc(C(F)(F)F)cc1-c1cncc(N2CCC(O)(c3ccc(F)c(F)c3)CC2)n1` [Example 50, 4-(3,4-difluorophenyl)-1-(6-(1-methyl-3-(trifluoromethyl)-1H-pyrazol-5-yl)pyrazin-2-yl)piperidin-4-ol] the IC50 [1] was > 100 µM and the IC50 (full length human TREX1) was > 10 µM.

With `Cc1nn(C)cc1-c1ccnc(N2CCC(O)(c3ccc(F)c(F)c3)CC2)n1` [Example 51, 4-(3,4-difluorophenyl)-1-(4-(1,3-dimethyl-1H-pyrazol-4-yl)pyrimidin-2-yl)piperidin-4-ol] the IC50 [1] was > 100 µM and the IC50 (full length human TREX1) was 0.1 to 1 µM.

With `Cc1noc(C)c1-c1cncc(N2CCC(O)(c3ccc(F)c(F)c3)CC2)n1` [Example 52, 4-(3,4-difluorophenyl)-1-(6-(3,5-dimethylisoxazol-4-yl)pyrazin-2-yl)piperidin-4-ol] the IC50 [1] was > 100 µM and the IC50 (full length human TREX1) was 1 to 10 µM.

In the case of `Cc1cc(-c2cncc(N3CCC(O)(c4ccc(F)c(F)c4)CC3)n2)n(C)n1` [Example 53, 4-(3,4-difluorophenyl)-1-(6-(1,3-dimethyl-1H-pyrazol-5-yl)pyrazin-2-yl)piperidin-4-ol], the IC50 [1] is reported as > 100 µM and the IC50 (full length human TREX1) is reported as 1 to 10 µM.

`Cc1nn(C)cc1-c1nccc(N2CCC(O)(c3ccc(F)c(F)c3)CC2)n1` [Example 54, 4-(3,4-difluorophenyl)-1-(2-(1,3-dimethyl-1H-pyrazol-4-yl)pyrimidin-4-yl)piperidin-4-ol] was tested, and the IC50 [1] was > 100 µM and the IC50 (full length human TREX1) was 1 to 10 µM.

`Cc1nn(C)cc1-c1ccnc(N2CCC(O)(c3ccc(F)c(F)c3)CC2)c1` [Example 55, 4-(3,4-difluorophenyl)-1-(4-(1,3-dimethyl-1H-pyrazol-4-yl)pyridin-2-yl)piperidin-4-ol] was tested, and the IC50 [1] was > 100 µM and the IC50 (full length human TREX1) was > 10 µM.

With `Cc1nn(C)cc1-c1cncc(N2CCC(O)(c3ccc(F)cc3)C(F)(F)C2)n1` (stereo not shown) [Example 56, 1-(6-(1,3-dimethyl-1H-pyrazol-4-yl)pyrazin-2-yl)-3,3-difluoro-4-(4-fluorophenyl)piperidin-4-ol] the IC50 [1] was > 100 µM and the IC50 (full length human TREX1) was 0.1 to 1 µM.

In the case of `Cc1nc(-c2cn(C)nc2C)cc(N2CCC(O)(c3ccc(F)c(F)c3)CC2)n1` [Example 57, 4-(3,4-difluorophenyl)-1-(6-(1,3-dimethyl-1H-pyrazol-4-yl)-2-methylpyrimidin-4-yl)piperidin-4-ol], the IC50 [1] is reported as > 100 µM and the IC50 (full length human TREX1) is reported as < 0.1 µM.

In the case of `Cc1nn(C)cc1-c1cc(N2CCC(O)(c3ccc(F)c(F)c3)CC2)ncn1` [Example 58, 4-(3,4-difluorophenyl)-1-(6-(1,3-dimethyl-1H-pyrazol-4-yl)pyrimidin-4-yl)piperidin-4-ol], the IC50 [1] is reported as 10 to 100 µM and the IC50 (full length human TREX1) is reported as < 0.1 µM.

With `Cc1nn(C)cc1-c1cc(N2CCC(O)(c3ccc(F)c(F)c3)CC2)nc(-c2ccccc2)n1` [Example 59, 4-(3,4-difluorophenyl)-1-(6-(1,3-dimethyl-1H-pyrazol-4-yl)-2-phenylpyrimidin-4-yl)piperidin-4-ol] the IC50 [1] was > 100 µM and the IC50 (full length human TREX1) was 1 to 10 µM.

With `Cn1cc(-c2cc(-c3cnn(C)c3)nc(N3CCC(O)(c4cccc(F)c4)CC3)c2)cn1` [Example 60, 1-(4,6-bis(1-methyl-1H-pyrazol-4-yl)pyridin-2-yl)-4-(3-fluorophenyl)piperidin-4-ol] the IC50 [1] was > 100 µM and the IC50 (full length human TREX1) was 1 to 10 µM.

For `Cn1cc(-c2cc(N3CCC(O)(c4cccc(F)c4)CC3)cc(-c3cnn(C)c3)n2)cn1` [Example 61, 1-(2,6-bis(1-methyl-1H-pyrazol-4-yl)pyridin-4-yl)-4-(3-fluorophenyl)piperidin-4-ol], the IC50 [1] was > 100 µM and the IC50 (full length human TREX1) was 1 to 10 µM.

— US20220313701A1, “MODULATORS OF TREX1” (Constellation Pharmaceuticals, Inc., priority 2019, published 2022)
